Measurements reported in patent EP0238060B1, “Cephalosporin derivatives, processes for their preparation and antibacterial agents” (Banyu Pharmaceutical Co., Ltd., priority 1986, dated 1987).
Values after ≈ are worked out from the molar mass of the structure shown. Read-outs that look alike come from different tables or passages of the source.

Legend:
Assay in all cases: In vitro antibacterial activity, agar plate dilution method (MIC)
Ps.cepacia 23 = type: cell-based, Pseudomonas cepacia; conditions: Burkholderia cepacia; Ps.cepacia 23; Mueller Hinton agar, inoculum 10⁶ CFU/ml, 37°C, 16 hours; read-out: Minimum Inhibitory Concentration (MIC: µg/ml)
Method: (§1) The in vitro antibacterial activities of the compounds of the present invention against various microorganisms, were measured by the following agar plate dilution method. One platinum loopfull of each test microorganism incubated overnight in Mueller Hinton broth, was inoculated to Mueller Hinton agar (inoculum size: l0⁶ CFU/ml). Such culture media containing various antibiotics in various concentrations were prepared. After incubation at 37°C for l6 hours, the minimum inhibitory concentrations (MIC: µg/ml) were measured. As comparative compounds, Cefotaxime, Ceftazidime and the compounds of Reference Examples l to 4 were employed.

S.marcescens IAM 1184 = type: cell-based; conditions: Serratia marcescens, read-out: Minimum Inhibitory Concentration (MIC: µg/ml)
Method: as §1

P.vulgaris No. 33 = type: cell-based; conditions: Proteus vulgaris, read-out: Minimum Inhibitory Concentration (MIC: µg/ml)
Method: as §1

E.coli CSH(RE45) = type: cell-based; conditions: Escherichia coli, 16 h, read-out: Minimum Inhibitory Concentration (MIC: µg/ml)
Method: as §1

S.aureus BB5703 = type: cell-based; conditions: Staphylococcus aureus; S.aureus BB5703; Mueller Hinton agar, inoculum 10⁶ CFU/ml, 37°C, 16 hours; read-out: Minimum Inhibitory Concentration (MIC: µg/ml)
Method: as §1

E.cloacae 963 = type: cell-based; conditions: Enterobacter cloacae; E.cloacae 963; Mueller Hinton agar, inoculum 10⁶ CFU/ml, 37°C, 16 hours; read-out: Minimum Inhibitory Concentration (MIC: µg/ml)
Method: as §1

S.aureus 209P NIHJ-JC1 = type: cell-based; conditions: Staphylococcus aureus; S.aureus 209P NIHJ-JC1; Mueller Hinton agar, inoculum 10⁶ CFU/ml, 37°C, 16 hours; read-out: Minimum Inhibitory Concentration (MIC: µg/ml)
Method: as §1

A.calcoaceticus No. 4 = type: cell-based; conditions: Acinetobacter calcoaceticus; A.calcoaceticus No. 4; Mueller Hinton agar, inoculum 10⁶ CFU/ml, 37°C, 16 hours; read-out: Minimum Inhibitory Concentration (MIC: µg/ml)
Method: as §1

K.pneumoniae No. 42 = type: cell-based; conditions: Klebsiella pneumoniae; K.pneumoniae No. 42 (β-Lactamase-producing strain); Mueller Hinton agar, inoculum 10⁶ CFU/ml, 37°C, 16 hours; read-out: Minimum Inhibitory Concentration (MIC: µg/ml)
Method: as §1

C.freundii GN346/16 = type: cell-based; conditions: Citrobacter freundii; C.freundii GN346/16; Mueller Hinton agar, inoculum 10⁶ CFU/ml, 37°C, 16 hours; read-out: Minimum Inhibitory Concentration (MIC: µg/ml)
Method: as §1

S.epidermidis IAM12012 = type: cell-based; conditions: Staphylococcus epidermidis; S.epidermidis IAM12012; Mueller Hinton agar, inoculum 10⁶ CFU/ml, 37°C, 16 hours; read-out: Minimum Inhibitory Concentration (MIC: µg/ml)
Method: as §1

E.coli NIHJ JC2 = type: cell-based; conditions: Escherichia coli, NIHJJC2; E.coli NIHJ JC2; Mueller Hinton agar, inoculum 10⁶ CFU/ml, 37°C, 16 hours; read-out: Minimum Inhibitory Concentration (MIC: µg/ml)
Method: as §1

P.vulgaris HX-19 = type: cell-based; conditions: Proteus vulgaris, HX19; P.vulgaris HX-19; Mueller Hinton agar, inoculum 10⁶ CFU/ml, 37°C, 16 hours; read-out: Minimum Inhibitory Concentration (MIC: µg/ml)
Method: as §1

K.pneumoniae PCI-602 = type: cell-based; conditions: Klebsiella pneumoniae, PCI602; K.pneumoniae PCI-602; Mueller Hinton agar, inoculum 10⁶ CFU/ml, 37°C, 16 hours; read-out: Minimum Inhibitory Concentration (MIC: µg/ml)
Method: as §1

S.marcescens No. 16-2 = type: cell-based; conditions: Serratia marcescens, NO.162; S.marcescens No. 16-2 (β-Lactamase-producing strain); Mueller Hinton agar, inoculum 10⁶ CFU/ml, 37°C, 16 hours; read-out: Minimum Inhibitory Concentration (MIC: µg/ml)
Method: as §1

E.coli GN5482 = type: cell-based; conditions: Escherichia coli; E.coli GN5482 (β-Lactamase-producing strain); Mueller Hinton agar, inoculum 10⁶ CFU/ml, 37°C, 16 hours; read-out: Minimum Inhibitory Concentration (MIC: µg/ml)
Method: as §1

E.cloacae Nek 39 = type: cell-based; conditions: Enterobacter cloacae, NEK39; E.cloacae Nek 39 (β-Lactamase-producing strain); Mueller Hinton agar, inoculum 10⁶ CFU/ml, 37°C, 16 hours; read-out: Minimum Inhibitory Concentration (MIC: µg/ml)
Method: as §1

M.morganii GN5407 = type: cell-based; conditions: Morganella morganii; M.morganii GN5407 (β-Lactamase-producing strain); Mueller Hinton agar, inoculum 10⁶ CFU/ml, 37°C, 16 hours; read-out: Minimum Inhibitory Concentration (MIC: µg/ml)
Method: as §1

Ps.aeruginosa AKR17 = type: cell-based; conditions: Pseudomonas aeruginosa; Ps.aeruginosa AKR17; Mueller Hinton agar, inoculum 10⁶ CFU/ml, 37°C, 16 hours; read-out: Minimum Inhibitory Concentration (MIC: µg/ml)
Method: as §1

Ps.aeruginosa IFO3445 = type: cell-based; conditions: Pseudomonas aeruginosa; Ps.aeruginosa IFO3445; Mueller Hinton agar, inoculum 10⁶ CFU/ml, 37°C, 16 hours; read-out: Minimum Inhibitory Concentration (MIC: µg/ml)
Method: as §1

K.oxytoca GN10650 = type: cell-based; conditions: Klebsiella oxytoca, read-out: Minimum Inhibitory Concentration (MIC: µg/ml)
Method: as §1

S.aureus JS1 = type: cell-based; conditions: Staphylococcus aureus; S.aureus JS1 (β-Lactamase-producing strain); Mueller Hinton agar, inoculum 10⁶ CFU/ml, 37°C, 16 hours; read-out: Minimum Inhibitory Concentration (MIC: µg/ml)
Method: as §1

C.freundii GN346 = type: cell-based; conditions: Citrobacter freundii; C.freundii GN346 (β-Lactamase-producing strain); Mueller Hinton agar, inoculum 10⁶ CFU/ml, 37°C, 16 hours; read-out: Minimum Inhibitory Concentration (MIC: µg/ml)
Method: as §1

E.coli CSH2 (RK1) = type: cell-based; conditions: Escherichia coli, 16 h, read-out: Minimum Inhibitory Concentration (MIC: µg/ml)
Method: as §1

M.luteus ATCC9341 = type: cell-based; conditions: Micrococcus luteus; M.luteus ATCC9341; Mueller Hinton agar, inoculum 10⁶ CFU/ml, 37°C, 16 hours; read-out: Minimum Inhibitory Concentration (MIC: µg/ml)
Method: as §1

Ps.aeruginosa AK 109 = type: cell-based; conditions: Pseudomonas aeruginosa, AK109; Ps.aeruginosa AK 109; Mueller Hinton agar, inoculum 10⁶ CFU/ml, 37°C, 16 hours; read-out: Minimum Inhibitory Concentration (MIC: µg/ml)
Method: as §1

Ps.maltophilia GN 12873 = type: cell-based, Pseudomonas maltophilia; conditions: Stenotrophomonas maltophilia, GN12873; Ps.maltophilia GN 12873 (β-Lactamase-producing strain); Mueller Hinton agar, inoculum 10⁶ CFU/ml, 37°C, 16 hours; read-out: Minimum Inhibitory Concentration (MIC: µg/ml)
Method: as §1

SMILES	MIC (Ps.cepacia 23) [µg/mL]	MIC (E.coli CSH(RE45)) [µg/mL]	MIC (S.aureus BB5703) [µg/mL]	MIC (E.cloacae 963) [µg/mL]	MIC (S.aureus 209P NIHJ-JC1) [µg/mL]	MIC (A.calcoaceticus No. 4) [µg/mL]	MIC (K.pneumoniae No. 42) [µg/mL]	MIC (C.freundii GN346/16) [µg/mL]	MIC (S.epidermidis IAM12012) [µg/mL]	MIC (E.coli NIHJ JC2) [µg/mL]	MIC (P.vulgaris HX-19) [µg/mL]	MIC (K.pneumoniae PCI-602) [µg/mL]	MIC (S.marcescens No. 16-2) [µg/mL]	MIC (E.coli GN5482) [µg/mL]	MIC (E.cloacae Nek 39) [µg/mL]	MIC (M.morganii GN5407) [µg/mL]	MIC (Ps.aeruginosa AKR17) [µg/mL]	MIC (Ps.aeruginosa IFO3445) [µg/mL]	MIC (S.aureus JS1) [µg/mL]	MIC (C.freundii GN346) [µg/mL]	other results
C=CCON=C(C(=O)NC1C(=O)N2C(C(=O)[O-])=C(C[n+]3ccc4cc(O)c(O)cc4c3)CS[C@H]12)c1csc(N)n1 (stereo partly drawn) [Ex. 3, 7-[2-allyloxyimino-2-(2-aminothiazol-4-yl)acetamido]-3-(6,7-dihydroxy-2-isoquinolinio)methyl-3-cephem-4-carboxylate]	< 0.006	0.025 (≈ 0.0429 µM)	6.25 (≈ 10.7 µM)	0.05 (≈ 0.0858 µM)	0.78 (≈ 1.34 µM)	0.2 (≈ 0.343 µM)	0.1 (≈ 0.172 µM)	0.39 (≈ 0.669 µM)	0.39 (≈ 0.669 µM)	0.1 (≈ 0.172 µM)	< 0.006	< 0.006	1.56 (≈ 2.68 µM)	0.39 (≈ 0.669 µM)	0.1 (≈ 0.172 µM)	0.05 (≈ 0.0858 µM)	100 (≈ 172 µM)	0.39 (≈ 0.669 µM)	12.5 (≈ 21.5 µM)	50 (≈ 85.8 µM)	MIC (S.marcescens IAM 1184; IAM1184, 16 h): 0.0125 µg/mL (≈ 0.0215 µM); MIC (P.vulgaris No. 33; P.vulgaris No. 33 (β-Lactamase-producing strain), Mueller Hinton agar, inoculum 10⁶ CFU/ml, 37°C, 16 hours): 0.1 µg/mL (≈ 0.172 µM); MIC (K.oxytoca GN10650; K.oxytoca GN10650 (β-Lactamase-producing strain), Mueller Hinton agar, inoculum 10⁶ CFU/ml, 37°C, 16 hours): 3.12 µg/mL (≈ 5.36 µM); MIC (E.coli CSH2 (RK1)): 0.0125 µg/mL (≈ 0.0215 µM); MIC (M.luteus ATCC9341): 0.2 µg/mL (≈ 0.343 µM); MIC (Ps.aeruginosa AK 109): 0.78 µg/mL (≈ 1.34 µM); MIC (Ps.maltophilia GN 12873): > 100 µg/mL
Nc1nc(/C(=N/OC2(C(=O)O)CCCC2)C(=O)NC2C(=O)N3C(C(=O)[O-])=C(C[n+]4ccc5cc(O)c(O)cc5c4)CSC23)cs1 (stereo not drawn) [Ex. 5, 7-[2-(2-aminothiazol-4-yl)-2-(l-carboxy-l-cyclopentyloxyimino)acetamido]-3-(6,7-dihydroxy-2-isoquinolinio)methyl-3-cephem-4-carboxylate]	< 0.006	0.78 (≈ 1.19 µM)	50 (≈ 76.4 µM)	0.05 (≈ 0.0764 µM)	25 (≈ 38.2 µM)	0.1 (≈ 0.153 µM)	0.05 (≈ 0.0764 µM)	1.56 (≈ 2.38 µM)	6.25 (≈ 9.55 µM)	0.05 (≈ 0.0764 µM)	< 0.006	< 0.006	0.1 (≈ 0.153 µM)	0.2 (≈ 0.305 µM)	< 0.006	0.1 (≈ 0.153 µM)	0.39 (≈ 0.596 µM)	0.39 (≈ 0.596 µM)	100 (≈ 153 µM)	50 (≈ 76.4 µM)	MIC (S.marcescens IAM 1184; IAM1184, S.marcescens IAM 1184, Mueller Hinton agar, inoculum 10⁶ CFU/ml, 37°C, 16 hours): < 0.006 µg/mL; MIC (P.vulgaris No. 33; NO.33, 16 h): 0.0125 µg/mL (≈ 0.0191 µM); MIC (K.oxytoca GN10650; GN10650, 16 h): 0.0125 µg/mL (≈ 0.0191 µM); MIC (E.coli CSH2 (RK1)): 0.0125 µg/mL (≈ 0.0191 µM); MIC (M.luteus ATCC9341): 3.12 µg/mL (≈ 4.77 µM); MIC (Ps.aeruginosa AK 109): 0.39 µg/mL (≈ 0.596 µM); MIC (Ps.maltophilia GN 12873): 1.56 µg/mL (≈ 2.38 µM)
